Experimental data reported in the CheMixHub viscosity set.
Values joined by “and” are separate entries in the source; they are usually repeats but may differ in a detail not shown here. Identical values can stand only once.

CCCCCC(=O)O.CCCCCC(=O)[O-].CC[NH+](CC)CCO
101 kPa
Conditions	viscosity [mPa·s]
293.15 K	76.9
298.15 K	60.01
303.15 K	47.52
308.15 K	38.14
313.15 K	31
318.15 K	25.48
323.15 K	21.16

CCOP(=O)(OCC)OCC
Conditions	viscosity [mPa·s]
298.15 K, 101.3 kPa	1.503

CCCCCCCCCCCCCCCCCCCCCC
Conditions	viscosity [mPa·s]
323.1 K, 101.3 kPa	4.128

CCCCn1cc[n+](C)c1.F[P-](F)(F)(F)(F)F
viscosity
Conditions	293.15 K	293.2 K	298.15 K	303.15 K	308.15 K	308.19 K	313.15 K	318.15 K	323.15 K
100 kPa	336.9 mPa·s	342.7 mPa·s	256.7 mPa·s	197.6 mPa·s	148.3 mPa·s	144 mPa·s	112 mPa·s	87.66 mPa·s	70.97 mPa·s
101 kPa	378 mPa·s and 249.5 mPa·s and 265.2 mPa·s	–	–	187.6 mPa·s and 136 mPa·s and 165.7 mPa·s	101.5 mPa·s and 133.9 mPa·s	–	129.7 mPa·s and 79.01 mPa·s and 110.8 mPa·s	93.5 mPa·s and 62.4 mPa·s and 95.75 mPa·s	88.51 mPa·s and 47.7 mPa·s

COCCOCCOCCOCCOC
viscosity
Conditions	293.15 K	298 K	298.15 K	303.15 K	308.15 K	318.15 K	323.15 K
101 kPa	3.795 mPa·s	3.295 mPa·s	–	2.955 mPa·s	2.646 mPa·s and 2.643 mPa·s and 2.524 mPa·s	2.168 mPa·s and 2.11 mPa·s	1.975 mPa·s
101.33 kPa	–	–	3.394 mPa·s	–	–	–	–

C=CC(=O)OCC
viscosity
Conditions	293.15 K	298.15 K	303.15 K	308.15 K	313.15 K	318.15 K
100 kPa	0.5685 mPa·s	0.533 mPa·s	0.5 mPa·s	0.4643 mPa·s	0.423 mPa·s	0.3813 mPa·s
101 kPa	0.5685 mPa·s and 0.573 mPa·s	–	0.5 mPa·s and 0.504 mPa·s and 0.502 mPa·s	–	0.423 mPa·s and 0.443 mPa·s and 0.42 mPa·s	0.3813 mPa·s and 0.421 mPa·s

CCCC(C)C
101.33 kPa
Conditions	viscosity [mPa·s]
298 K	0.2753
298.15 K	0.2767

N#CCCCCC#N
Conditions	viscosity [mPa·s]
303.15 K, 101.33 kPa	4.905

CCO
Conditions	viscosity
293.61 K, 100 kPa	1.18 mPa·s
293.91 K, 100 kPa	1.17 mPa·s
294.21 K, 100 kPa	1.17 mPa·s
294.52 K, 100 kPa	1.16 mPa·s
294.82 K, 100 kPa	1.16 mPa·s
295.12 K, 100 kPa	1.15 mPa·s
295.42 K, 100 kPa	1.15 mPa·s
295.73 K, 100 kPa	1.14 mPa·s
296.03 K, 100 kPa	1.14 mPa·s
296.33 K, 100 kPa	1.13 mPa·s
296.64 K, 100 kPa	1.13 mPa·s
296.94 K, 100 kPa	1.12 mPa·s
297.24 K, 100 kPa	1.12 mPa·s
298.15 K, 101 kPa	1.03 mPa·s
299.06 K, 100 kPa	1.08 mPa·s
299.36 K, 100 kPa	1.08 mPa·s
299.67 K, 100 kPa	1.07 mPa·s
299.97 K, 100 kPa	1.07 mPa·s
300.27 K, 100 kPa	1.06 mPa·s
300.58 K, 100 kPa	1.06 mPa·s
300.88 K, 100 kPa	1.05 mPa·s
301.18 K, 100 kPa	1.05 mPa·s
301.48 K, 100 kPa	1.04 mPa·s
301.79 K, 100 kPa	1.04 mPa·s
302.09 K, 100 kPa	1.03 mPa·s
302.39 K, 100 kPa	1.03 mPa·s
303.15 K, 100 kPa	0.989 mPa·s
303.15 K, 101.33 kPa	0.988 mPa·s
303.61 K, 100 kPa	1.01 mPa·s
303.91 K, 100 kPa	1 mPa·s
304.21 K, 100 kPa	1 mPa·s
304.52 K, 100 kPa	0.99 mPa·s
304.82 K, 100 kPa	0.99 mPa·s
305.12 K, 100 kPa	0.98 mPa·s
305.42 K, 100 kPa	0.98 mPa·s
305.73 K, 100 kPa	0.97 mPa·s
306.03 K, 100 kPa	0.97 mPa·s
306.33 K, 100 kPa	0.96 mPa·s
306.64 K, 100 kPa	0.96 mPa·s
306.94 K, 100 kPa	0.95 mPa·s
307.24 K, 100 kPa	0.95 mPa·s
307.55 K, 100 kPa	0.94 mPa·s
307.85 K, 100 kPa	0.94 mPa·s
308.15 K, 100 kPa	0.93 mPa·s
308.45 K, 100 kPa	0.93 mPa·s
308.76 K, 100 kPa	0.92 mPa·s
309.06 K, 100 kPa	0.92 mPa·s
309.36 K, 100 kPa	0.91 mPa·s
309.67 K, 100 kPa	0.91 mPa·s
309.97 K, 100 kPa	0.9 mPa·s
310.27 K, 100 kPa	0.9 mPa·s
310.58 K, 100 kPa	0.89 mPa·s
310.88 K, 100 kPa	0.89 mPa·s
311.18 K, 100 kPa	0.88 mPa·s
311.48 K, 100 kPa	0.88 mPa·s
313.15 K, 100 kPa	0.8179 mPa·s and 0.82 mPa·s
313.15 K, 101.32 kPa	0.835 mPa·s
318.15 K, 100 kPa	0.75 mPa·s
323 K, 101.33 kPa	0.673 mPa·s and 0.673 mPa·s
323.15 K, 101.32 kPa	0.702 mPa·s

OCCCCCO
101 kPa
Conditions	viscosity [mPa·s]
313.15 K	45.63
318.15 K	36.87
323.15 K	29.8

CCc1ccccc1
Conditions	viscosity
298 K, 101 kPa	0.6295 mPa·s
298.15 K, 101 kPa	0.6076 mPa·s and 0.631 mPa·s
298.15 K, 101.3 kPa	0.657 mPa·s
298.15 K, 101.33 kPa	0.625 mPa·s
303 K, 101.33 kPa	0.574 mPa·s
303.15 K, 100 kPa	0.592 mPa·s
303.15 K, 101 kPa	0.5916 mPa·s
303.15 K, 101.33 kPa	0.584 mPa·s
308.15 K, 100 kPa	0.56 mPa·s
308.15 K, 101.33 kPa	0.5797 mPa·s and 0.56 mPa·s
313 K, 101.33 kPa	0.513 mPa·s
313.15 K, 100 kPa	0.53 mPa·s
313.15 K, 101.33 kPa	0.531 mPa·s
318.15 K, 100 kPa	0.503 mPa·s
318.15 K, 101.33 kPa	0.502 mPa·s and 0.5038 mPa·s
323 K, 101.33 kPa	0.464 mPa·s
323.15 K, 100 kPa	0.478 mPa·s
323.15 K, 101.33 kPa	0.474 mPa·s
